In patent US8012983B2, “Substituted triazolopyrazines useful for the treatment of degenerative and inflammatory diseases” (Galapagos NV, priority 2008, dated 2011):

What was measured:
[1] = tested on: MMP1 expression by activated synovial fibroblasts (RASFs); assay: 'MMP assay': complex trigger-induced MMP1 expression by synovial fibroblasts (MMP1 ELISA); assay type: cell-based; conditions: Homo sapiens, Fibroblast; RASFs, complex trigger, 48 hrs; read-out: MMP1 IC50
In short: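 Synovial fibroblasts seeded at 3,000 cells/well, treated with compound, then triggered with supernatant of TNF-α-treated THP-1 cells, diluted in M199 with low FBS. MMP1 in supernatant quantified by sandwich ELISA with biotinylated anti-MMP1 and streptavidin-HRP chemiluminescent detection.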

[2] = Tolerability of compounds in healthy mice (body weight); assay type: in vivo; conditions: 100 mg/kg/d, po, up to two weeks, DBA/1J mice, FIG. 6A
Protocol: This protocol is designed to assess the tolerability of the compounds of the invention in healthy DBA/1J mice to determine the “therapeutic window” as defined by the dosing range between efficacious (mouse therapeutic Collagen-Induced Arthritis model) and toxic doses.
Compounds are prepared for a dosing regimen of 100 mg/kg/d, po, free base, in a standard volume of injection of 0.1 mL/10 g of mice (equivalent to 10 mg/1 mL). For solution preparations, compounds were dissolved in 0.5% methyl-cellulose and 1% DMSO, once a week.
Groups are randomized based on body weight and treated for up to two weeks. Each group contained 5 mice and received either test compound at 100 mg/kg, a comparison compound at 100 mg/kg/d (Compound A) or vehicle on a daily basis in a dosing volume of 200 μL per mouse.
Potential drug toxicity is monitored by observation every day and by recording body weights three times a week for weight loss. All statistical analyses were performed using Student's t test.
To assess the general tolerability of the treatments, the total body weight is followed throughout the course of the study.

Row | Structure (SMILES) | IC50 [1] [nM] | General tolerability: total body weight compared to the vehicle [2]
1 | CC(C)N1C[C@@H]2C[C@H]1CN2c1ccc(Nc2ncc(-c3coc(C(N)=O)c3)n3ncnc23)cc1 [Compound 2, 4-{8-[4-((1S,4S)-5-Isopropyl-2,5-diaza-bicyclo[2.2.1]hept-2-yl)-phenylamino]-[1,2,4]triazolo[1,5-a]pyrazin-5-yl}-furan-2-carboxamide] | 1 to 1000 | no statistically significant difference
2 | CC(C)N1C[C@@H]2C[C@H]1CN2c1ccc(Nc2ncc(-c3ccc4c(c3)CNC4=O)n3ncnc23)cc1 [Compound 1, 5-{8-[4-((1S,4S)-5-Isopropyl-2,5-diaza-bicyclo[2.2.1]hept-2-yl)-phenylamino]-[1,2,4]triazolo[1,5-a]pyrazin-5-yl}-2,3-dihydro-isoindol-1-one] | > 1000 | no statistically significant difference
